The structures appear in SMILES notation.

Data on three compounds can be found in publication PMC12566971, “Polyprenylated Acylphloroglucinols from Hypericum rochelii and Hypericum olympicum—Cytotoxic Effects on Non-Tumorigenic Cell Lines and Antibacterial Potential” (Pharmaceuticals, 2025).

Series [1] relates to breast cancer cell line. Also noted: method as in PMID 26865836. Conditions: 24 h, ref [93]; cited from earlier work.
In series [2] the test system is unspecified fibroblasts. Conditions: up to 30 μg/mL for 24 h, ref [93]; cited from earlier work.
Series [3] concerns CCL-1 cell line. Nature of the series: Live-cell imaging with Hoechst for apoptosis detection. The format is cell-based. Conditions: positive control, 5 to 72 h. The procedure: Cell suspension was seeded in the same manner as for MTT, but 50 µL per well in 96-well clear bottom plates. […] For the hypertonic buffer, the exposure time was 2 h, and the cells were plated at twice the concentration as for the MTT and cytopathic tests in order to comply with the kit protocol.
At least two wells were seeded as replicates, and at least two photographs were taken for all samples and treatments, stained with dyes or not.

The subject of series [4] is CCL-1 and HGF cells. Nature of the series: Western blot for autophagy proteins Atg5, Atg7, LC3A/B. The format is cell-based. Conditions: 24 h; erufosine 30 µM, HirDM90 IC50. The method, then: For Western blot, CCL-1 and HGF cell lines were chosen, and they were seeded in either 6-well plates or 55 mm Petri dishes suitable for cell culture. They were treated with an exposure time of 24 h in an incubator (Panasonic MCO-18AC, Panasonic Healthcare Ltd., […], Japan). […] Hans-Jörg Eibl. In addition, a higher concentration of an […] added to one of the tests for comparison. The samples were trypsinized, collected, washed with PBS (TS1101, HiMedia, Mumbai, India), centrifuged, and frozen at -80 °C if storage was necessary. Then they were lysed on ice with a buffer containing 100 mM Tris-HCl (648313, Sigma-Aldrich, St. Louis, MO, USA) at pH 8.0, 4% sodium dodecyl sulfate (SDS, […], Sigma-Aldrich), 20% glycerol (49779, Sigma-Aldrich), 1% Na3VO4 (450243, Sigma-Aldrich), 200 mM dithiothreitol (DTT, 3483-12-3, Sigma-Aldrich, Burlington, MA, USA) supplemented with protease inhibitor (05892970001, Roche). The cell lysate was heated to boiling for 15 min, then centrifuged at 13,000 rpm for 10 min at 4 °C. Lysates were subjected to denaturing SDS polyacrylamide gel electrophoresis on acrylamide 4-20% gradient Mini-PROTEAN® TGXTM Stain-Free gels (4568094, Bio-Rad Laboratories, Hercules, CA, USA). […] Densitometric calculation and analysis was performed with Quantity One software version 4.6.9 (Bio-Rad Laboratories).
For orientation: Immunoblotting shows a protein as a band on a membrane.

In the case of `Cc1cc(O)c2c(=O)c3c(O)cc(O)c4c5c(O)cc(O)c6c(=O)c7c(O)cc(C)c8c1c2c(c34)c(c78)c65` [hypericin], the “IC50 for a breast cancer cell line” value in series [1] is 5 mg/L. Further, in series [2], the “Effect on cell survival of fibroblasts” value is listed as “did not have a significant effect”.

Regarding `COc1cccc2c1C(=O)c1c(O)c3c(c(O)c1C2=O)C[C@@](O)(C(C)=O)C[C@@H]3O[C@H]1C[C@H](N)[C@H](O)[C@H](C)O1` [daunorubicin, reference compound], in series [3], the “Highly condensed and shrunken nuclei (marker of apoptosis)” value is recorded as “not in samples treated with daunorubicin”. With `CCCCCCCC/C=C\CCCCCCCCCCCCOP(=O)([O-])OCC[N+](C)(C)C` [erufosine], the “Conversion of LC3A/B to the lower migrating form” value in series [4] is on record as “converted to the lower migrating form visibly”.
